Measurements: patent US20230116703A1, “NOVEL ERGOLINES AND METHODS OF TREATING MOOD DISORDERS” (priority 2021, published 2023)
Where two headings read alike, the source gives them in different places.

Key:
[1] = Metabolic stability in mouse liver microsomes (MLM); assay type: in vitro ADME; conditions: 0.50 mg protein per mL; for t1/2: MLM (CD-1), 1 μM; for microsomal CLint at 1 μM: mouse, pooled mouse liver microsomes, pH 7.4, MLM (CD-1)
Description: MLM Stability Pooled MLM from CD-1 mice (BIOIVT M00501) were used.

Alpha1A receptor = target: T1, Alpha1A receptor (Homo sapiens, UniProt P35348); experiment: FLIPR Ca^2+ flux agonist assay at Alpha1A; assay type: cell-based
T1 sequence (P35348 1-466): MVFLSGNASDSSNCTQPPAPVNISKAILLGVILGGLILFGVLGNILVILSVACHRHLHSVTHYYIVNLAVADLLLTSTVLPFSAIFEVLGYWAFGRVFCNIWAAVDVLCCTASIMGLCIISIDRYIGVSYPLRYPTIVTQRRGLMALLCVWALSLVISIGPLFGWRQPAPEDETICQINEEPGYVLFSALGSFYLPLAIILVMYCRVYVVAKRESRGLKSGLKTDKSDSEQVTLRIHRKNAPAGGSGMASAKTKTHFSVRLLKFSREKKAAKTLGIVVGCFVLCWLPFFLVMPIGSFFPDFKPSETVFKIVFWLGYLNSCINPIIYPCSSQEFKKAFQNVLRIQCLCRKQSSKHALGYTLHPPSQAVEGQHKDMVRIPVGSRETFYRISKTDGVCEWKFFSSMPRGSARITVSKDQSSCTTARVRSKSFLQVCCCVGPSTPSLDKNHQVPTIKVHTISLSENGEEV
Protocol: Disclosed compounds were tested for agonist activity at several adrenergic (Alpha1A and Alpha2A) and dopamine (D1 and D2) receptor subtypes using Ca^2+ flux functional assays, with the results summarized in Table 6. Selectivity for the 5-HT2A receptor over these other targets varied depending on the specific target and compound.
(§1) Functional Assays at Adrenergic and Dopamine Receptors. Agonist activity at Alpha1A, Alpha2A, D1, and D2 receptors was determined using a FLIPR Ca^2+ flux assay at WuXi AppTec (Hong Kong) Limited according to their standard protocols. Briefly, stably transfected cells expressing the receptor of interest were grown and plated in a 384 well plate and incubated at 37° C. and 5% CO2 overnight. A solution of 250 mM probenecid in 1 mL FLIPR assay buffer was prepared fresh. This was combined with a fluorescent dye (Fluo-4 Direct™) to make a final assay concentration of 2.5 mM. Compounds were diluted 1:3.16 for 10 points and 750 nL was added to a 384 well compound plate using ECHO along with 30 μL assay buffer. The fluorescent dye was then added to the assay plate along with assay buffer to a final volume of 40 μL. The cell plate was incubated for 50 min at 37° C. and 5% CO2 and placed into the FLIPR Tetra along with the compound plate. 10 μL of references and compounds were then transferred from the compound plate into the cell plate and the fluorescent signal was read.

Alpha2A receptor = target: T2, Alpha2A receptor (Homo sapiens, UniProt P08913); experiment: FLIPR Ca^2+ flux agonist assay at Alpha2A; assay type: cell-based
T2 sequence (P08913 1-465): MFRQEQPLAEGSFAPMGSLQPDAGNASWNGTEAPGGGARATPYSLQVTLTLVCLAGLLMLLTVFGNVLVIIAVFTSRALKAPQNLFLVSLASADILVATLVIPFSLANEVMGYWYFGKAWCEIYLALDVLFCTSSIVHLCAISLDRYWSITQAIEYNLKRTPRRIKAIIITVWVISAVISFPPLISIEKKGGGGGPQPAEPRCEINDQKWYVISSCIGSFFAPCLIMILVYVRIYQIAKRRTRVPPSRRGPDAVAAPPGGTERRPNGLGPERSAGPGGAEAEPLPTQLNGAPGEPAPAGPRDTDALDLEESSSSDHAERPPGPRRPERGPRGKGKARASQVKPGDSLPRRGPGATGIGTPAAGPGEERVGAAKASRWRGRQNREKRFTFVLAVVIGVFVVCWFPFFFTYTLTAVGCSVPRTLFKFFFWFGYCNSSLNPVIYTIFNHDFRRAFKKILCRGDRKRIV
Protocol: as §1, with “Compounds were diluted 1:3.16 for 10 points and 750 nL was added to a 384 well compound plate using ECHO along with 30 μL assay buffer.” left out

C57BL/6 mice = experiment: Head twitch response (HTR) in mice; assay type: in vivo, mouse; conditions: SC; for ED50: 20 min, read-out: ED50 (95% CI); for ED50 / Most Efficacious Dose / Emax (95% CI): mouse HTR; for ED50 / Emax (95% CI): 20 min observation, curve fit, poor in some cases; for # HTR at Most Efficacious Dose: head twitches in 20 min
Protocol: Agonists of the 5-HT2A receptor are well known to induce this effect in rodents and the potency of this HTR is correlated with hallucinogenic potency in humans.
Animals. Adult male C57BL/6 mice, aged 6-8 weeks (body weight 20-25 g) were used in this experiment. Animals were housed under controlled temperatures and 12-hour light/dark cycles (lights on between 07:00-19:00 h), with ad libitum food and water. This study was carried out in strict accordance with the requirements of the Committee for the Purpose of Control and Supervision of Experiments on Animals (CPCSEA), India. All efforts were made to minimize suffering.
Drugs and Drug Administration. Compound 1 was synthesized as described above. It was administered subcutaneously (SC) dissolved in saline vehicle at a volume of 10 mL/kg. Five doses were tested, with n=6 animals/group. Doses were calculated on the basis of the freebase.
Procedure. Mice were administered one dose of the drug and immediately placed into a small open field for behavioral observation. Animals were observed continuously for 20 mins and the number of head twitches (HTs) were counted by an observer blind to the treatment condition.
Statistical Analysis. The data points shown are the mean±standard error of the mean (SEM). Analysis was performed using GraphPad Prism 6. Curves were fit using a non-linear gaussian distribution to calculate ED50 and Emax values.
Additional disclosed compounds were tested in the mouse head twitch response (HTR) assay according to the procedure described in Example 43. […] Lastly, compounds with much larger benzyl and phenethyl substituents on the amine nitrogen (e.g., 10 and 11) were low efficacy in this assay, consistent with their lower maximal efficacy in the arrestin functional assay (see Example 41).

[2] = Ca^2+ flux, agonist, read-out: Alpha1A EC50
[3] = Ca^2+ flux, agonist, read-out: Alpha 2A EC50

| Structure (SMILES) | t1/2 [1] [min] | microsomal CLint at 1 μM [1] [µL/min/mg] | EC50 (Alpha1A receptor; [2]) [µM] | EC50 (Alpha2A receptor; [3]) [µM] | ED50 (C57BL/6 mice) [mg/kg] | Most Efficacious Dose (C57BL/6 mice) [mg/kg] | Emax (95% CI) (C57BL/6 mice) | efficacy in HTR assay (in words) (C57BL/6 mice; mouse) | # HTR at Most Efficacious Dose (C57BL/6 mice; mouse) | EC50 (Alpha1A receptor) [µM] | EC50 (Alpha2A receptor) [µM] | induction of head twitch response (in words) (C57BL/6 mice; mouse) |
| --- | --- | --- | --- | --- | --- | --- | --- | --- | --- | --- | --- | --- |
| CCN(CC)C(=O)[C@@H]1C=C2c3cccc4[nH]cc(c34)C[C@H]2N(Cc2ccccc2OC)C1 [Compound 10, (6aR,9R)—N,N-diethyl-7-(2-methoxybenzyl)-4,6,6a,7,8,9-hexahydroindolo[4,3-fg]quinoline-9-carboxamide] | 1 | 1400 | > 31.6 | > 31.6 | 1.26 | 3.2 | 7.749 (4.126-???) | low efficacy | 6.5 |  |  |  |
| CCCN1C[C@H](C(=O)NC(CC)CC)C=C2c3cccc4[nH]cc(c34)C[C@H]21 [Compound 6, (6aR,9R)—N-(pentan-3-yl)-7-propyl-4,6,6a,7,8,9-hexahydroindolo[4,3-fg]quinoline-9-carboxamide] | 0.6 | 2420 |  |  | 0.139 | 1 | 23.06 (19.86-27.47) |  |  |  |  |  |
| CCCN1C[C@H](C(=O)N[C@H](C)CC)C=C2c3cccc4[nH]cc(c34)C[C@H]21 [Compound 3, (6aR,9R)—N—((R)-sec-butyl)-7-propyl-4,6,6a,7,8,9-hexahydroindolo[4,3-fg]quinoline-9-carboxamide] | 1.6 | 894 |  |  | 0.0401 | 0.32 | 25.56 (22.08-29.36) |  | 27.0 | 0.0423 | 3.64 |  |
| CCN(CC)C(=O)[C@@H]1C=C2c3cccc4[nH]cc(c34)C[C@H]2N(CCc2ccccc2OC)C1 [Compound 11, (6aR,9R)—N,N-diethyl-7-(2-methoxyphenethyl)-4,6,6a,7,8,9-hexahydroindolo[4,3-fg]quinoline-9-carboxamide] | 0.917 | 1510 | > 31.6 | > 31.6 | 2.21 | 3.2 | 19.79 (12.66-80.7) | low efficacy | 12.0 |  |  |  |
| CCN(CC)C(=O)[C@@H]1C=C2c3cccc4[nH]cc(c34)C[C@H]2N(CCCF)C1 [Compound 2, (6aR,9R)—N,N-diethyl-7-(3-fluoropropyl)-4,6,6a,7,8,9-hexahydroindolo[4,3-fg]quinoline-9-carboxamide] | 2.666 | 520 |  |  | 0.0703 | 0.32 | 20.47 (18.43-22.6) |  |  | 0.237 | 1 |  |
| CCCN1C[C@H](C(=O)N(CC)CC)C=C2c3cccc4[nH]cc(c34)C[C@H]21 [Compound 1, (6aR,9R)—N,N-diethyl-7-propyl-4,6,6a,7,8,9-hexahydroindolo[4,3-fg]quinoline-9-carboxamide] | 2.3 | 615 |  |  | 0.0946 | 1 | 21.63 (18.45-25.78) |  |  | 0.00882 | 0.0422 | robust and dose-dependent HTR |
| CCCN1C[C@H](C(=O)N2[C@@H](C)C[C@@H]2C)C=C2c3cccc4[nH]cc(c34)C[C@H]21 [Compound 4, ((2S,4S)-2,4-dimethylazetidin-1-yl)((6aR,9R)-7-propyl-4,6,6a,7,8,9-hexahydroindolo[4,3-fg]quinolin-9-yl)methanone] | 0.8 | 1670 |  |  | 0.376 | 0.1 | 4.034 (2.965-5.217) | less efficacious |  | 0.116 | 1.08 |  |
